Where a name gives a salt, the structure may show the parent alone.
Experiments:
[1] = target: c-fms (Homo sapiens (Human), UniProt P07333); assay: Autophosphorylation fluorescence polarization competition immunoassay for c-fms inhibition; type: biochemical; conditions: averages of three independent measurements; table head says 1 nM c-fms, method says 10 nM c-fms, 1 mM ATP; read-out: 1 nM c-fms; peptide Pi assay IC-50
Procedure: Fluorescence Polarization Competition Immunoassay
The assay buffer used was 100 mM 4-(2-hydroxyethyl)piperazine 1-ethanesulfonic acid (HEPES), pH 7.5, 1 mM 1,4-dithio-DL-threitol (DTT), 0.01% (v/v) Tween-20. Compounds were diluted in assay buffer containing 4% dimethylsulfoxide (DMSO) just prior to the assay. To each well, 5 μL of compound were added followed by the addition of 3 μL of a mix containing 33 nM c-fms (Johnson & Johnson PRD) and 16.7 mM MgCl2 (Sigma) in assay buffer. The kinase reaction was initiated by adding 2 μL of 5 mM ATP (Sigma) in assay buffer. […] Control reactions were ran in each plate: in positive and negative control wells, assay buffer (made 4% in DMSO) was substituted for the compound; in addition, positive control wells received 1.2 μL of 50 mM ethylenediaminetetraaceticacid (EDTA).
The plates were incubated at room temperature for 45 min. At the end of the incubation, the reaction was quenched with 1.2 μL of 50 mM EDTA (EDTA was not added to the positive control wells at this point; see above). Following a 5-min incubation, each well received 10 μL of a 1:1:3 mixture of anti-phosphotyrosine antibody, 10×, PTK green tracer, 10× (vortexed), FP dilution buffer, respectively (all from PanVera, cat. #P2837). The plate was covered, incubated for 30 min at room temperature and the fluorescence polarization was read on the Analyst. The instrument settings were: 485 nm excitation filter; 530 nm emission filter; Z height: middle of well; G factor: 0.93. […] The reported IC50 values are averages of three independent measurements.

[2] = test system: mouse bone-marrow derived macrophages (BMDM); assay: CSF-1-driven mouse bone-marrow derived macrophages proliferation assay (BrDU incorporation); type: cell-based; conditions: Mus musculus, BMDM, 30 hrs culture, read-out: mCSF driven proliferation BMDM (Mouse) IC-50
Procedure: CSF-1-Driven Mouse Bone-Marrow Derived Macrophages Assay
Macrophages are derived by culturing mouse bone marrow in alpha-MEM supplemented with 10% FCS and 50 ng/ml recombinant mouse CSF-1 in bacteriologic dishes. On the sixth day, macrophages are detached from dishes, washed, and resuspended to 0.05 million cells/ml in alpha-MEM containing 10% FCS. One hundred ul of cell suspension are distributed per well into 96 well culture plates. Wells are further supplemented with the addition of 50 ul media containing 15 ng/ml CSF-1, 3 uM Indomethacin, and 3× of a dilution series of test compounds. The cells are cultured for 30 hrs at 37 degrees and 5% CO2. During the final six hours, cultures are supplemented with an additional 30 ul of media containing a 1:500 dilution of bromodeoxyuridine (BrDU). At the end of the culture period, the plates are spun at 1000 RPM for 1 minute and 130 ul of media is removed with a pipet and replaced with 150 ul of fixative solution for 1 hour @ room temperature. The fixative is then dispelled from the plates and the plates allowed to air dry. Incorporation of BrDU into the fixed, dried cells is quantified using a specific ELISA.

c-fms, sequence (P07333 20-972): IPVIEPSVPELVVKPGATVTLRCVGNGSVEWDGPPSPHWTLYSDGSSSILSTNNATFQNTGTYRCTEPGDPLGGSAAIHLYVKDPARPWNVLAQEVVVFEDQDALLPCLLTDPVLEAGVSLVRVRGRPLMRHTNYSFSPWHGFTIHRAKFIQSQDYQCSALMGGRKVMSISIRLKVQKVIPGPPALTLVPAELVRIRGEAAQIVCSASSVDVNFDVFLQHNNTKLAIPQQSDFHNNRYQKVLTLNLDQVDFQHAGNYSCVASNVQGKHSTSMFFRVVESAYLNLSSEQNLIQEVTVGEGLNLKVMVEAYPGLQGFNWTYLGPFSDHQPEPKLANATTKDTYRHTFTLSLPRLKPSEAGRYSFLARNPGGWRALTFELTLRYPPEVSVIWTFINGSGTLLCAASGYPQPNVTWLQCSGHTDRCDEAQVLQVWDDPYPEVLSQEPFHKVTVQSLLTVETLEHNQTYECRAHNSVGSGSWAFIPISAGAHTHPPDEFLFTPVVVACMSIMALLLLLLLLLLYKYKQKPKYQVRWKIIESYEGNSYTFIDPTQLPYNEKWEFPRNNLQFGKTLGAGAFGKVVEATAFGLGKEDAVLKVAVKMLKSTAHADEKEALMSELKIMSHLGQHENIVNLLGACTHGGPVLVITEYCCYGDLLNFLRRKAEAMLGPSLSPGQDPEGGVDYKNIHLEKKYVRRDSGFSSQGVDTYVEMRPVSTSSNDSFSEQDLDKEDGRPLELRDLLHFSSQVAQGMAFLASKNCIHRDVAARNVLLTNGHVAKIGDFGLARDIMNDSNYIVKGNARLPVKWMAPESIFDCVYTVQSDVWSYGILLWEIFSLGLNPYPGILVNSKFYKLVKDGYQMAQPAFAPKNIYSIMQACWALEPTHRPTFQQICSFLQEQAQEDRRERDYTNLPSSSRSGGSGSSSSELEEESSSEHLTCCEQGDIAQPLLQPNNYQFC

| SMILES | IC50 [1] | IC50 [2] |
| --- | --- | --- |
| CC1(C)CC=C(c2nc(C3(O)CCOCC3)ccc2NC(=O)c2nc(C#N)c[nH]2)CC1 [Example 33, 4-Cyano-1H-imidazole-2-carboxylic acid [2-(4,4-dimethyl-cyclohex-1-enyl)-6-(4-hydroxy-tetrahydro-pyran-4-yl)-pyridin-3-yl]-amide] | 3.7 nM | 33 nM |
| N#Cc1c[nH]c(C(=O)Nc2ccc(C3(O)CCOCC3)cc2C2=CCCCC2)n1 [Example 27, 4-Cyano-1H-imidazole-2-carboxylic acid [2-cyclohex-1-enyl-4-(4-hydroxy-tetrahydro-pyran-4-yl)-phenyl]-amide] | 2.9 nM | 4.5 nM |
| CC1(C)CC=C(c2cc(C3(O)CC4(C)CCC(C)(C3)O4)ccc2NC(=O)c2nc(C#N)c[nH]2)CC1 (centres unmarked) [Example 93, 4-Cyano-1H-imidazole-2-carboxylic acid [2-(4,4-dimethyl-cyclohex-1-enyl)-4-(3-hydroxy-1,5-dimethyl-8-oxa-bicyclo[3.2.1]oct-3-yl)-phenyl]-amide] | 2.9 nM | 8.9 nM |
| CC1(C)CC=C(c2cc(C3(C(=O)O)CCOCC3)ccc2NC(=O)c2cc(C#N)c[nH]2)CC1 [Example 23, 4-[4-[(4-Cyano-1H-pyrrole-2-carbonyl)-amino]-3-(4,4-dimethyl-cyclohex-1-enyl)-phenyl]-tetrahydro-pyran-4-carboxylic acid] | 6.4 nM | > 300 nM |
| CN1CCN(C2(c3ccc(NC(=O)c4ncc(C#N)[nH]4)c(C4=CCC(C)(C)CC4)c3)CCOCC2)CC1 [Example 8, 5-Cyano-1H-imidazole-2-carboxylic acid {2-(4,4-dimethyl-cyclohex-1-enyl)-4-[4-(4-methyl-piperazin-1-yl)-tetrahydro-pyran-4-yl]-phenyl}-amide] | 4 nM | 15 nM |
| CC1(C)CC=C(c2cc(C3(O)CCS(=O)(=O)CC3)ccc2NC(=O)c2nc(C#N)c[nH]2)CC1 [Example 12, 4-Cyano-1H-imidazole-2-carboxylic acid [2-(4,4-dimethyl-cyclohex-1-enyl)-4-(4-hydroxy-1,1-dioxo-hexahydro-1λ^6-thiopyran-4-yl)-phenyl]-amide] | 1.1 nM | 31 nM |
| CC(=O)N1CCC(O)(c2ccc(NC(=O)c3nc(C#N)c[nH]3)c(C3=CCC(C)(C)CC3)c2)CC1 [Example 35, 4-Cyano-1H-imidazole-2-carboxylic acid [4-(1-acetyl-4-hydroxy-piperidin-4-yl)-2-(4,4-dimethyl-cyclohex-1-enyl)-phenyl]-amide] | 0.7 nM | 5.8 nM |
| CC(=O)N1CCC(N)(c2ccc(NC(=O)c3nc(C#N)c[nH]3)c(C3=CCC(C)(C)CC3)c2)CC1 [Example 13, 4-Cyano-1H-imidazole-2-carboxylic acid [4-(1-acetyl-4-amino-piperidin-4-yl)-2-(4,4-dimethyl-cyclohex-1-enyl)-phenyl]-amide acetic acid salt] | 0.8 nM | 8.1 nM |
| CC1(C)CC=C(c2cc(C3(N4CCOCC4)CCOCC3)ccc2NC(=O)c2ncc(C#N)[nH]2)CC1 [Example 6, 5-Cyano-1H-imidazole-2-carboxylic acid [2-(4,4-dimethyl-cyclohex-1-enyl)-4-(4-morpholin-4-yl-tetrahydro-pyran-4-yl)-phenyl]-amide] | 1.6 nM | 15 nM |
| COC(=O)C1(c2ccc(NC(=O)c3nc(C#N)c[nH]3)c(C3=CCC(C)(C)CC3)c2)CCOCC1 [Example 16, 4-[4-[(4-Cyano-1H-imidazole-2-carbonyl)-amino]-3-(4,4-dimethyl-cyclohex-1-enyl)-phenyl]-tetrahydro-pyran-4-carboxylic acid methyl ester] | 0.67 nM | 46 nM |
| CC1(C)CC=C(c2cc(C3(C(N)=O)CCOCC3)ccc2NC(=O)c2nc(C#N)c[nH]2)CC1 [Example 24, 4-Cyano-1H-imidazole-2-carboxylic acid [4-(4-carbamoyl-tetrahydro-pyran-4-yl)-2-(4,4-dimethyl-cyclohex-1-enyl)-phenyl]-amide] | 0.8 nM | 14 nM |
| COCCNC1(c2ccc(NC(=O)c3nc(C#N)c[nH]3)c(C3=CCC(C)(C)CC3)c2)CCOCC1 [Example 4, 4-Cyano-1H-imidazole-2-carboxylic acid {2-(4,4-dimethyl-cyclohex-1-enyl)-4-[4-(2-methoxy-ethylamino)-tetrahydro-pyran-4-yl]-phenyl}-amide] | 1.8 nM | 14 nM |
| CON1C(C)(C)CC(O)(c2ccc(NC(=O)c3nc(C#N)c[nH]3)c(C3=CCC(C)(C)CC3)c2)CC1(C)C [Example 89, 4-Cyano-1H-imidazole-2-carboxylic acid [2-(4,4-dimethyl-cyclohex-1-enyl)-4-(4-hydroxy-1-methoxy-2,2,6,6-tetramethyl-piperidin-4-yl)-phenyl]-amide] | 13 nM | 20 nM |
| CN(C)C(=O)C1(c2ccc(NC(=O)c3nc(C#N)c[nH]3)c(C3=CCCCC3)c2)CCOCC1 [Example 28, 4-Cyano-1H-imidazole-2-carboxylic acid [2-cyclohex-1-enyl-4-(4dimethylcarbamoyl-tetrahydro-pyran-4-yl)-phenyl]-amide] | 8.4 nM | 28 nM |
| CC1(C)CC=C(c2cc(C3(CN4CCOCC4)CCOCC3)ccc2NC(=O)c2nc(C#N)c[nH]2)CC1 [Example 26, 4-Cyano-1H-imidazole-2-carboxylic acid [2-(4,4-dimethyl-cyclohex-1-enyl)-4-(4-morpholin-4-ylmethyl-tetrahydro-pyran-4-yl)-phenyl]-amide] | 3 nM | 5.3 nM |
| CN(C)CCOC1(c2ccc(NC(=O)c3ncc(C#N)[nH]3)c(C3=CCC(C)(C)CC3)c2)CCOCC1 [Example 2, 5-Cyano-1H-imidazole-2-carboxylic acid [4-[4-(2-dimethylamino-ethoxy)-tetrahydro-pyran-4-yl]-2-(4,4-dimethyl-cyclohex-1-enyl)-phenyl]-amide trifluoroacetic acid salt] | 0.42 nM | 2.2 nM |
| CS(=O)(=O)C1(c2ccc(NC(=O)c3ncc(C#N)[nH]3)c(C3=CCCCC3)c2)CCOCC1 [Example 34, 5-Cyano-1H-imidazole-2-carboxylic acid [2-cyclohex-1-enyl-4-(4-methanesulfonyl-tetrahydro-pyran-4-yl)-phenyl]-amide] | 1.5 nM | 17.2 nM |
| CC1(C)CC=C(c2cc(C3(C#N)CC(C)(C)OC(C)(C)C3)ccc2NC(=O)c2nc(C#N)c[nH]2)CC1 [Example 95, 4-Cyano-1H-imidazole-2-carboxylic acid [4-(4-cyano-2,2,6,6-tetramethyl-tetrahydro-pyran-4-yl)-2-(4,4-dimethyl-cyclohex-1-enyl)-phenyl]-amide] | 26 nM | 29 nM |
| C[C@@H]1CC(O)(c2ccc(NC(=O)c3nc(C#N)c[nH]3)c(C3=CCC(C)(C)CC3)n2)C[C@H](C)O1 (stereo partly drawn) [Example 32, 4-Cyano-1H-imidazole-2-carboxylic acid [2-(4,4-dimethyl-cyclohex-1-enyl)-6-(4-hydroxy-Cis-2,6-dimethyl-tetrahydro-pyran-4-yl)-pyridin-3-yl]-amide] | 3.2 nM | 19 nM |
| CC1(C)CC=C(c2cc(C3(C#N)C[C@]4(C)CC[C@](C)(C3)O4)ccc2NC(=O)c2nc(C#N)c[nH]2)CC1 (some centres unmarked) [Example 94, 4-Cyano-1H-imidazole-2-carboxylic acid [4-(3-cyano-1,5-dimethyl-8-oxa-bicyclo[3.2.1]oct-3-yl)-2-(4,4-dimethyl-cyclohex-1-enyl)-phenyl]-amide] | 82 nM | > 100 nM |
| CC1(C)CC=C(c2cc(C3(O)CCOCC3)ccc2NC(=O)c2ncc(C#N)[nH]2)CC1 [Example 1, 5-Cyano-1H-imidazole-2-carboxylic acid [2-(4,4-dimethyl-cyclohex-1-enyl)-4-(4-hydroxy-tetrahydro-pyran-4-yl)-phenyl]-amide] | 0.7 nM | 4 nM |
| N#Cc1c[nH]c(C(=O)Nc2ccc(C3(O)CCSCC3)cc2C2=CCCCC2)n1 [Example 14, 4-Cyano-1H-imidazole-2-carboxylic acid [2-cyclohex-1-enyl-4-(4-hydroxy-tetrahydro-thiopyran-4-yl)-phenyl]-amide] | 3.9 nM | 9.5 nM |

From patent publication US9394289B2, “Inhibitors of c-fms kinase” (Janssen Pharmaceutica NV, priority 2006, dated 2016)
